{
  "source": "patent US7622251B2",
  "about": "“Molecular indicators of breast cancer prognosis and prediction of treatment response” (Genomic Health, Inc., priority 2004, dated 2009)",
  "key": {"[1]": {"system": "ER-positive invasive breast cancer with negative axillary lymph nodes", "assay": "NSABP B-14 placebo and TAM arms combined: Cox interaction of treatment effect with gene expression, distant recurrence-free survival", "type": "in vivo, human", "details": "for H.R., treatment by gene expression interaction: placebo and TAM combined", "protocol": "Endometrial cancer in TAM-treated breast cancer patients: Findings from the National Surgical Adjuvant Breast and Bowel Project (NSABP) B-14. J Natl Cancer Inst 86:527-537(1994). • 1.1 Fixed paraffin-embedded breast tumor tissue samples from up to 450 patients, who were treated at study entry with placebo alone in the B-14 study, were analyzed. For each evaluable patient, the expression of 16 cancer-related genes and 5 reference genes was quantitatively assessed by RT-PCR. […] Contralateral disease, other second primary cancers, and deaths prior to distant recurrence will be considered censoring events. […] Gene expression values were normalized relative to the mean of the reference genes. For each cancer-related gene, cycle threshold (CT) measurements were obtained by RT-PCR, and normalized relative to a set of five reference genes listed in Table 1. […] For the purpose of identifying treatment predictive genes in breast cancer, our primary objective was to explore the relation between gene expression and DRFS and OS in treated patients. For such analyses, data from both treated and untreated patient arms were utilized in order to discriminate treatment preditive genes from purely prognostic genes. For identifying treatment predictive genes for tamoxifen (TAM) response, both placebo and TAM-treated patients were included from NSABP Study B-14. In both studies, Cox proportional hazards models were utilized to examine the interaction between the treatment effect and gene expression. An interaction between treatment and gene expression exists if the treatment effect depends on the gene expression level; that is, if gene expression is a treatment predictive factor. Again, the likelihood ratio test was used to identify statistically significant predictive treatment genes by comparing the reduced model excluding the gene expression by treatment interaction versus the competing full model including the gene expression by treatment interaction."}, "[2]": {"system": "ESR1 positive, node-negative breast cancer", "assay": "Recurrence Score validation trial, patients treated with TAM alone in NSABP Study B-14: distant recurrence at 10 years", "type": "in vivo, human", "protocol": "To test the clinical validity of this Recurrence Score test and algorithm, a blinded clinical trial with prospectively identified endpoints was carried out. This validation trial focused on patients treated with TAM alone in the randomized and registration arms of the National Surgical Adjuvant Breast and Bowel Project (NSABP) Study B-14 clinical trial population (Fisher B, Costantino J P, Redmond C K, et al: Endometrial cancer in TAM-treated breast cancer patients: Findings from the National Surgical Adjuvant Breast and Bowel Project (NSABP) B-14. J Natl Cancer Inst 86:527-537 (1994)). Genomic Health, Inc. and the NSABP carried out the 21 gene RT-PCR assay on 668 breast cancer tissue specimens derived from these patients and calculated a Recurrence Score for each patient.\nPre-specified cut-off points of Recurrence Score classified patients into one of three categories: low risk, intermediate risk, and high risk of distant disease recurrence. The proportion of the 668 patients categorized as low, intermediate, and high risk by the RT-PCR assay were 51%, 23%, and 27%, respectively. […] In a multivariate Cox model relating distant recurrence to Recurrence Score, age, and tumor size, Recurrence Score provides significant (p<0.001) predictive power that goes beyond age and tumor size. This study validated the Recurrence Score as a powerful predictor of distant recurrence in patients without involved nodes who have tumors that are ESR1 positive and treated with TAM (Paik et al. Breast Cancer Research and Treatment 82, Supplement 1: page S10, 2003 (Abstract 16)."}},
  "data": [
    {"compound": "CC/C(=C(\\c1ccccc1)c1ccc(OCCN(C)C)cc1)c1ccccc1", "note": "[TAM, tamoxifen]", "values": [
      {"measurement": "decrease of H.R. for recurrence of TAM-treated patients", "setting": "[1]; for every two fold increase in expression of ESR1, 95% confidence limits ~12% to ~37%", "value": "about 25%"},
      {"measurement": "absolute benefit of TAM treatment", "setting": "[1]; patients in the lowest quartile of ESR1 expression (FIG. 3)", "value": "little benefit"},
      {"measurement": "absolute benefit of TAM treatment", "setting": "[1]; patients in the lowest tertile of ESR1 expression (FIG. 2)", "value": "much less impact"},
      {"measurement": "absolute benefit of TAM treatment", "setting": "[1]; two-thirds of patients who express ESR1 at the highest levels (tertiles, FIG. 2)", "value": "substantial absolute benefit"},
      {"measurement": "H.R., treatment by gene expression interaction", "setting": "[1]; variable IntBCL2_2", "value": 0.7697},
      {"measurement": "H.R., treatment by gene expression interaction", "setting": "[1]; variable IntESR1 Group", "value": 0.7573},
      {"measurement": "H.R., treatment by gene expression interaction", "setting": "[1]; variable IntESR1_1", "value": 0.7438},
      {"measurement": "H.R., treatment by gene expression interaction", "setting": "[1]; variable IntSCUBE2_2", "value": 0.8058},
      {"measurement": "H.R., treatment by gene expression interaction", "setting": "[1]; variable IntTFRC_3", "value": 1.944},
      {"measurement": "Kaplan-Meier estimate (95% confidence interval) of rate of distant recurrence at 10 years", "setting": "[2]; high risk group by Recurrence Score", "value": "30.5% (23.6%, 37.4%)"},
      {"measurement": "Kaplan-Meier estimate (95% confidence interval) of rate of distant recurrence at 10 years", "setting": "[2]; intermediate risk group by Recurrence Score", "value": "14.3% (8.3%, 20.3%)"},
      {"measurement": "Kaplan-Meier estimate (95% confidence interval) of rate of distant recurrence at 10 years", "setting": "[2]; low risk group by Recurrence Score", "value": "6.8% (4.0%, 9.6%)"}
    ]}
  ]
}
